Our source for the IC50 values is PubChem BioAssay AID1671246.

SMILES strings stand for the structures.

The assay addresses Casein kinase I isoform gamma-1 (Homo sapiens) (UniProt Q9HCP0). In words: CSNK1G1 kinase inhibitors, dose response, biochemical, Z'-LYTE, FRET, protease-coupled, direct format (AID 1671246). Conditions: Z'-LYTE FRET kinase activity, recombinant CSNK1G1.

Casein kinase I isoform gamma-1 (Homo sapiens), sequence (Q9HCP0 whole entry, looked up, canonical isoform): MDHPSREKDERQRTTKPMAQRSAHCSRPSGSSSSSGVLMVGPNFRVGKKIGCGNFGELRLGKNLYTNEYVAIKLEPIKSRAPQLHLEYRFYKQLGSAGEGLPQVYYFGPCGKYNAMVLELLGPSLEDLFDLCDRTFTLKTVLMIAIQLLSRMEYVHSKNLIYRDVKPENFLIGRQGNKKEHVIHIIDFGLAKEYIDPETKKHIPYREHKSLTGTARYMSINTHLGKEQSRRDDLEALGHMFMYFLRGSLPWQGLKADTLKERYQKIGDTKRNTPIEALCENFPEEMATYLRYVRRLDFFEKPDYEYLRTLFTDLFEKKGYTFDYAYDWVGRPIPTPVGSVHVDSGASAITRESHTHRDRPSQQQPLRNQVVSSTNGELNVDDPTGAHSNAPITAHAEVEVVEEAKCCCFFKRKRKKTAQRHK

The IC50 is the concentration at which inhibition is half-maximal. Take `CN1C(=O)C2(Cc3cn(C45CC67SSC(CO)(C(=O)N6C4Nc4ccccc45)N(C)C7=O)c4ccccc34)SSC1(CO)C(=O)N2C` (stereo unspecified): the IC50 is 109 nM.
